The record followed here is US3996359A, “Novel stereoisomeric component A of stereoisomeric mixtures of 2'-unsymmetrical 16,17-methylenedioxy steroid 21-acylates, compositions thereof, and method of treating therewith” (AB Bofors, priority 1972, dated 1976).

This series relates to rats subjected to adrenalectomy (granuloma around implanted cotton wads). Put plainly: granulom test (cotton-pellet test) on rats subjected to adrenalectomy: granuloma growth, thymus weight, body weight increase. The format is in vivo, rat (Sprague-Dawley). The following applies: for Dose required to obtain 50% inhibition of Granuloma growth: Table 3, adrenalectomized young male Sprague-Dawley rats, topical in implanted cotton wads, day 8; for Dose required to obtain 25% inhibition of Body weight Increase / Dose required to obtain 50% inhibition of Thymus weight: 11520 min. From the text: In the following this active stereoisomeric component will always be designated B. As regards the steroids referred to in connection with the present invention the stereoisomeric mixture as well as the individual stereoisomeric components A and B have been investigated with regard to antiinflammatory activity in granulom test on rats subjected to adrenalectomy. The experimental procedure used corresponds largely to that described by G. Engelhardt: Arzneimittel-Forschung, 13, p. 588, 1963. According to this procedure the test substances are applied topically in the implanted cottom wads. It is thereby possible to study the local antiinflammatory effect in granulomas and also systemic effects in the form of retrogression of thymus and inhibition of bodyweight growth.
Young male rats of the Sprague-Dawley strain weighing about 110-130 g were subjected to adrenalectomy under ether narcosis. Two sterilized cottom wads of each about 6 mg were implanted simultaneously subcutaneously on the lateral side of the spinal. After awakening the animals were stored 5 per cage and were supplied with normal food and 1% sodium chloride solution as drinking water. On the eighth test day the animals were sacrificed by ether narcosis. The granuloma formed around the cotton wads were carefully recovered and thymus and body weights were measured. The two granuloma from each animal were dried over night at 80° C and weighed. After subtraction of the initial weight of the cotton wads the weight increase was used as a measure of the granulom growth.
The test substances were used dissolved in ethyl acetate. Under aseptic conditions 0.05 ml of said solutions were injected into each of the cotton wads, whereafter the solvent was allowed to evaporate in the desiccator. Normally 3 concentrations of each test substance with the standard doses 3.3, 30 and 270 γ/animal were investigated. Each test group normally comprised 10 rats. The cotton wads of the control group were injected with only ethyl acetate, but were in other respects treated in the same way. When considering the effects of the test substances the average values of granulom growth, thymus weight and body weight increase day 0-8 were measured in each group in absolute figures and in % of the corresponding figure of the control group. Dose-response curves were drafted and used for estimating the doses giving 50 % reduction of granulom growth and of thymus weight and 25 % decrease of body weight increase.
The following Table 4 discloses the results of the cotton-pellet test hereinbefore described, giving in addition figures for the therapeutic ratios, that is, the ratios of the ED50 for thymus weight inhibition divided by the ED50 for granuloma formation inhibition, and the ED25 for body weight increase inhibition over the ED50 for granuloma formation inhibition. As will be recognized, the higher the number for the therapeutic ratio, the more favorable the therapeutic ratio. […] As will be noted for the table, the therapeutic ratio for thymus over granuloma for the Component A esters is 4.2, 7.1, 4.5, 2.6, 2.2, 1.7, 2.5 and 1.7 times as good as it is for the corresponding Component B ester isomer, whereas the therapeutic ratio for the Component A ester isomer as far as body weight is granuloma 2.7, 3.3, 9.8, 6.4, 2.3, 2.8, 3.3 and 2.8 times as favorable as for the corresponding Component B ester isomer.

Consider `CCCC1O[C@@H]2C[C@H]3[C@@H]4CCC5=CC(=O)C=C[C@]5(C)[C@H]4[C@@H](O)C[C@]3(C)[C@]2(C(=O)COC(C)=O)O1` (single isomer, unassigned) [27 A], for which the “Dose required to obtain 50% inhibition of Granuloma growth” value is given as < 3 γ/animal. For the same molecule, for the setting “rat, in vivo”, the ED25 body weight increase inhibition is 100 µg/animal, the ED50 thymus weight inhibition is 100 µg/animal, the “Therapeutic ratio body weight/granuloma” value is on record as more than 33.3 and the Therapeutic ratio thymus/granuloma is more than 33.3. Where the note is “rat, in vivo”, the “Dose required to obtain 25% inhibition of Body weight Increase” value is recorded as 100 γ/animal and the “Dose required to obtain 50% inhibition of Thymus weight” value was 100 γ/animal.
For the molecule `CCCCC(=O)OCC(=O)[C@@]12OC(C)O[C@@H]1C[C@H]1[C@@H]3CCC4=CC(=O)C=C[C@]4(C)[C@@]3(F)[C@@H](O)C[C@@]12C` (single isomer, unassigned) [18 A], the “Dose required to obtain 50% inhibition of Granuloma growth” value is listed as < 3 γ/animal. Further, for the setting “rat, in vivo”, the ED25 body weight increase inhibition came out at 33 µg/animal, the ED50 thymus weight inhibition was 70 µg/animal, the “Therapeutic ratio body weight/granuloma” value is more than 11.0 and the Therapeutic ratio thymus/granuloma is listed as more than 23.3. Under “rat, in vivo”, the “Dose required to obtain 25% inhibition of Body weight Increase” value was 33 γ/animal and the “Dose required to obtain 50% inhibition of Thymus weight” value was 70 γ/animal.
As to `CCCC1O[C@@H]2C[C@H]3[C@@H]4CCC5=CC(=O)C=C[C@]5(C)[C@H]4[C@@H](O)C[C@]3(C)[C@]2(C(=O)COC(=O)c2cc3ccccc3o2)O1` (single isomer, unassigned) [28 B], for the setting “rat, in vivo”, the ED25 body weight increase inhibition was 35 µg/animal, the ED50 thymus weight inhibition amounted to 60 µg/animal, the “Therapeutic ratio body weight/granuloma” value is listed as more than 11.7 and the Therapeutic ratio thymus/granuloma is recorded as more than 20.0.
As to `CCCC1OC2CC3C4CCC5=CC(=O)C=CC5(C)C4(F)C(O)CC3(C)C2(C(=O)COC(=O)c2cc3ccccc3o2)O1` (mixture of isomers) [20 A+B], the “Dose required to obtain 50% inhibition of Granuloma growth” value is < 3 γ/animal. Also, under “rat, in vivo”, the “Dose required to obtain 25% inhibition of Body weight Increase” value is on record as 20 γ/animal and the “Dose required to obtain 50% inhibition of Thymus weight” value is 25 γ/animal.
As for `CC1O[C@@H]2C[C@H]3[C@@H]4CCC5=CC(=O)C=C[C@]5(C)[C@@]4(F)[C@@H](O)C[C@]3(C)[C@]2(C(=O)COC(=O)c2cc3ccccc3o2)O1` (stereo partly drawn) [16 A], the “Dose required to obtain 50% inhibition of Granuloma growth” value is reported as 5 γ/animal. In addition, under “Table 4, ED25 body weight increase inhibition over ED50 granuloma formation inhibition”, the “Therapeutic ratio body weight/granuloma” value is reported as more than 9.0. The Therapeutic ratio thymus/granuloma (Table 4, ED50 thymus weight inhibition divided by ED50 granuloma formation inhibition) is reported as 14.0. For the same molecule, where the note is “rat, in vivo”, the ED25 body weight increase inhibition was more than 45 µg/animal, the ED50 thymus weight inhibition was found to be 70 µg/animal, the “Dose required to obtain 25% inhibition of Body weight Increase” value is given as > 45 γ/animal and the “Dose required to obtain 50% inhibition of Thymus weight” value is 70 γ/animal.
For the molecule `CCCCC(=O)OCC(=O)[C@@]12OC(CCC)O[C@@H]1C[C@H]1[C@@H]3CCC4=CC(=O)C=C[C@]4(C)[C@@]3(F)[C@@H](O)C[C@@]12C` (single isomer, unassigned) [22 A], the “Dose required to obtain 50% inhibition of Granuloma growth” value is reported as < 3 γ/animal. Under “rat, in vivo”, the ED25 body weight increase inhibition was 33 µg/animal, the ED50 thymus weight inhibition stood at 90 µg/animal, the “Therapeutic ratio body weight/granuloma” value is more than 11.0 and the Therapeutic ratio thymus/granuloma was more than 30.0. Moreover, where the note is “rat, in vivo”, the “Dose required to obtain 25% inhibition of Body weight Increase” value is on record as 33 γ/animal and the “Dose required to obtain 50% inhibition of Thymus weight” value is recorded as 90 γ/animal.
Turning to `CC1O[C@@H]2C[C@H]3[C@@H]4C[C@H](F)C5=CC(=O)C=C[C@]5(C)[C@@]4(F)[C@@H](O)C[C@]3(C)[C@]2(C(=O)CO)O1` (single isomer, unassigned) [7 B], the “Dose required to obtain 50% inhibition of Granuloma growth” value is on record as 10 γ/animal. Further, for the setting “rat, in vivo”, the “Dose required to obtain 25% inhibition of Body weight Increase” value is on record as 15 γ/animal and the “Dose required to obtain 50% inhibition of Thymus weight” value is given as 6 γ/animal.
Taken in the same sequence, the figures for `CCCC1O[C@@H]2C[C@H]3[C@@H]4C[C@H](F)C5=CC(=O)C=C[C@]5(C)[C@@]4(F)[C@@H](O)C[C@]3(C)[C@]2(C(=O)CO)O1` (single isomer, unassigned) [8 B] were 4 γ/animal, 50 γ/animal and 10 γ/animal.
For `CC1O[C@@H]2C[C@H]3[C@@H]4CCC5=CC(=O)C=C[C@]5(C)[C@@]4(F)[C@@H](O)C[C@]3(C)[C@]2(C(=O)COC(=O)c2cccnc2)O1` (single isomer, unassigned) [17 A] the same measures were 7 γ/animal, 20 γ/animal and 45 γ/animal.
On to `CCCCCC1O[C@@H]2C[C@H]3[C@@H]4CCC5=CC(=O)C=C[C@]5(C)[C@H]4[C@@H](O)C[C@]3(C)[C@]2(C(=O)CO)O1` (single isomer, unassigned) [13 B], for which the “Dose required to obtain 50% inhibition of Granuloma growth” value is 5 γ/animal. In addition, under “rat, in vivo”, the “Dose required to obtain 25% inhibition of Body weight Increase” value is given as > 270 γ/animal and the “Dose required to obtain 50% inhibition of Thymus weight” value is listed as 210 γ/animal.
For the molecule `CCCC1O[C@@H]2C[C@H]3[C@@H]4C[C@H](F)C5=CC(=O)C=C[C@]5(C)[C@@]4(F)[C@@H](O)C[C@]3(C)[C@]2(C(=O)COC(=O)c2cc3ccccc3o2)O1` (single isomer, unassigned) [25 B], the “Dose required to obtain 50% inhibition of Granuloma growth” value was < 3 γ/animal. For the setting “rat, in vivo”, the ED25 body weight increase inhibition came to 20 µg/animal, the ED50 thymus weight inhibition turned out to be 7 µg/animal, the “Therapeutic ratio body weight/granuloma” value is recorded as more than 2.9 and the Therapeutic ratio thymus/granuloma is listed as more than 2.3. Moreover, for the setting “rat, in vivo”, the “Dose required to obtain 25% inhibition of Body weight Increase” value was 20 γ/animal and the “Dose required to obtain 50% inhibition of Thymus weight” value is given as 7 γ/animal.
Take `CCCC1O[C@@H]2C[C@H]3[C@@H]4C[C@H](F)C5=CC(=O)C=C[C@]5(C)[C@@]4(F)[C@@H](O)C[C@]3(C)[C@]2(C(=O)CO)O1` (single isomer, unassigned) [8 A]: the “Dose required to obtain 50% inhibition of Granuloma growth” value is recorded as 6 γ/animal. Besides, under “rat, in vivo”, the “Dose required to obtain 25% inhibition of Body weight Increase” value was 50 γ/animal and the “Dose required to obtain 50% inhibition of Thymus weight” value is on record as 13 γ/animal.
Taken in the same sequence, the figures for `CC1O[C@@H]2C[C@H]3[C@@H]4CCC5=CC(=O)C=C[C@]5(C)[C@@]4(F)[C@@H](O)C[C@]3(C)[C@]2(C(=O)CO)O1` (stereo partly drawn) [1 A+B] were 120 γ/animal, > 270 γ/animal and 270 γ/animal.
As to `CCC1OC2CC3C4CCC5=CC(=O)C=CC5(C)C4(F)C(O)CC3(C)C2(C(=O)CO)O1` (mixture of isomers) [2 A+B], the “Dose required to obtain 50% inhibition of Granuloma growth” value is recorded as 35 γ/animal. For the setting “rat, in vivo”, the “Dose required to obtain 25% inhibition of Body weight Increase” value is given as 140 γ/animal and the “Dose required to obtain 50% inhibition of Thymus weight” value is recorded as 100 γ/animal.
For `CC1O[C@@H]2C[C@H]3[C@@H]4CCC5=CC(=O)C=C[C@]5(C)[C@@]4(F)[C@@H](O)C[C@]3(C)[C@]2(C(=O)CO)O1` (single isomer, unassigned) [1 B] the same measures were 30 γ/animal, 30 γ/animal and 50 γ/animal.
As to `CCCC1O[C@@H]2C[C@H]3[C@@H]4CCC5=CC(=O)C=C[C@]5(C)[C@H]4[C@@H](O)C[C@]3(C)[C@]2(C(=O)CO)O1` (single isomer, unassigned) [12 A], the “Dose required to obtain 50% inhibition of Granuloma growth” value is reported as 125 γ/animal. Also, under “rat, in vivo”, the “Dose required to obtain 25% inhibition of Body weight Increase” value is > 270 γ/animal and the “Dose required to obtain 50% inhibition of Thymus weight” value was 125 γ/animal.
On to `CCCCC1O[C@@H]2C[C@H]3[C@@H]4CCC5=CC(=O)C=C[C@]5(C)[C@@]4(F)[C@@H](O)C[C@]3(C)[C@]2(C(=O)CO)O1` (single isomer, unassigned) [4 B], for which the “Dose required to obtain 50% inhibition of Granuloma growth” value was < 3 γ/animal. Moreover, under “rat, in vivo”, the “Dose required to obtain 25% inhibition of Body weight Increase” value was 100 γ/animal and the “Dose required to obtain 50% inhibition of Thymus weight” value is reported as 50 γ/animal.
Regarding `CC1O[C@@H]2C[C@H]3[C@@H]4C[C@H](F)C5=CC(=O)C=C[C@]5(C)[C@@]4(F)[C@@H](O)C[C@]3(C)[C@]2(C(=O)CO)O1` (single isomer, unassigned) [7 A], the “Dose required to obtain 50% inhibition of Granuloma growth” value is listed as 15 γ/animal. Also, for the setting “rat, in vivo”, the “Dose required to obtain 25% inhibition of Body weight Increase” value is 20 γ/animal and the “Dose required to obtain 50% inhibition of Thymus weight” value was 12 γ/animal.
